# Assay results reported in patent publication US5945413A, “Aspartyl protease inhibitors” (Vertex Pharmaceuticals Incorporated, priority 1996, dated 1999).
# pKi: −log10 of the molar value.
# Biological target: HIV-1 protease (Human immunodeficiency virus type 1 group M subtype B, UniProt P04585)
# Assay: inhibition constants against HIV-1 protease (method of Pennington et al.)
# Format: biochemical
# Conditions: not given
# From the text: We have measured the inhibition constants of each compound against HIV-1 protease using the method described essentially by M. W. Pennington et al., Peptides 1990, Gimet, E. and D. Andrew, Eds., Escom, Leiden, Netherlands (1990); and the method described essentially by Partaledis et al., J. Virol., 69, pp. 5228-35 (1995).
# Using the method described by Pennington et al. (supra), we obtained inhibition constants for the following compounds of this invention: […]
row,pKi,SMILES
1,6.26,"COc1ccc(S(=O)(=O)N(CC(O)CN2C(=O)CC[C@@H]2Cc2ccccc2)CC2CCCC2)cc1 (single isomer, unassigned) [Compound 15]"
2,6.80,C=CCN1C[C@H](Cc2ccccc2)N(C[C@H](O)CN(CC2CCCC2)S(=O)(=O)c2ccc(OC)cc2)C1=O [Compound 1]
3,8.05,C=CCC1C[C@H](Cc2ccccc2)N(C[C@H](O)CN(CC2CCCC2)S(=O)(=O)c2ccc(OC)cc2)C1=O (stereo partly shown) [Compound 7]
4,< 5.00,COc1ccc(S(=O)(=O)N(CC(O)CN2[C@@H](Cc3ccccc3)CN(C)S2(=O)=O)CC2CCCC2)cc1 (stereo partly shown) [Compound 10]
5,< 5.00,COc1ccc(S(=O)(=O)N(CC(O)CN2[C@@H](Cc3ccccc3)CCS2(=O)=O)CC2CCCC2)cc1 (stereo partly shown) [Compound 11]
6,< 5.00,CC(C)CN1CC(Cc2ccccc2)N(CC(O)CN(CC2CCCC2)S(=O)(=O)c2cccc(N)c2)C1=O (stereo not shown) [Compound 12]
7,6.65,COc1ccc(S(=O)(=O)N(CC(O)CN2C(=O)N(C)C[C@@H]2Cc2ccccc2)CC2CCCC2)cc1 (stereo partly shown) [Compound 13]
8,7.80,COc1ccc(S(=O)(=O)N(CC(O)CN2C(=O)N(Cc3ccccc3)C[C@@H]2Cc2ccccc2)CC2CCCC2)cc1 (stereo partly shown) [Compound 14]
9,7.25,COc1ccc(S(=O)(=O)N(CC2CCCC2)C[C@@H](O)CN2C(=O)C(C)C[C@@H]2Cc2ccccc2)cc1 (stereo partly shown) [Compound 16]
10,6.94,COc1ccc(S(=O)(=O)N(CC(O)CN2C(=O)C(C)(C)C[C@@H]2Cc2ccccc2)CC2CCCC2)cc1 (stereo partly shown) [Compound 17]
11,7.82,CCC1C[C@H](Cc2ccccc2)N(CC(O)CN(CC2CCCC2)S(=O)(=O)c2ccc(OC)cc2)C1=O (stereo partly shown) [Compound 18]
12,5.52,COc1ccc(S(=O)(=O)N(CC(O)CN2C(=O)CC(O)[C@@H]2Cc2ccccc2)CC2CCCC2)cc1 (stereo partly shown) [Compound 19]
13,8.82,COc1ccc(S(=O)(=O)N(CC2CCCC2)C[C@@H](O)CN2C(=O)C(Cc3ccccc3)C[C@@H]2Cc2ccccc2)cc1 (stereo partly shown) [Compound 20]
14,< 4.70,COc1ccc(S(=O)(=O)N(CC(O)CN2C(=O)C(N)C[C@@H]2Cc2ccccc2)CC2CCCC2)cc1 (stereo partly shown) [Compound 21]
15,6.22,COc1ccc(S(=O)(=O)N(CC(O)CN2C(=O)C(NC(C)=O)C[C@@H]2Cc2ccccc2)CC2CCCC2)cc1 (stereo partly shown) [Compound 22]
16,7.15,COc1ccc(S(=O)(=O)N(CC(O)CN2C(=O)C(CC(O)CO)C[C@@H]2Cc2ccccc2)CC2CCCC2)cc1 (stereo partly shown) [Compound 23]
17,6.46,COc1ccc(S(=O)(=O)N(CC(O)CN2C(=O)C(CC3COCO3)C[C@@H]2Cc2ccccc2)CC2CCCC2)cc1 (stereo partly shown) [Compound 24]
18,7.08,COc1ccc(S(=O)(=O)N(CC(O)CN2C(=O)C(CC(COC(C)=O)OC(C)=O)C[C@@H]2Cc2ccccc2)CC2CCCC2)cc1 (stereo partly shown) [Compound 25]
19,7.24,COc1ccc(S(=O)(=O)N(CC(O)CN2C(=O)C(CC3COC(=O)O3)C[C@@H]2Cc2ccccc2)CC2CCCC2)cc1 (stereo partly shown) [Compound 26]
20,5.52,COc1ccc(S(=O)(=O)N(CC(O)CN2C(=O)CNC[C@@H]2Cc2ccccc2)CC2CCCC2)cc1 (stereo partly shown) [Compound 27]
21,5.85,COc1ccc(S(=O)(=O)N(CC(O)CN2C(=O)COC[C@@H]2Cc2ccccc2)CC2CCCC2)cc1 (stereo partly shown) [Compound 28]
22,< 4.82,COc1ccc(S(=O)(=O)N(CC(O)CN2C(=O)[C@H](C)NC[C@@H]2Cc2ccccc2)CC2CCCC2)cc1 (stereo partly shown) [Compound 30]
23,6.41,COc1ccc(S(=O)(=O)N(CC(O)CN2C(=O)C(C)(C)NC[C@@H]2Cc2ccccc2)CC2CCCC2)cc1 (stereo partly shown) [Compound 31]
24,6.80,COc1ccc(S(=O)(=O)N(CC(O)CN2C(=O)C3(CCCC3)NC[C@@H]2Cc2ccccc2)CC2CCCC2)cc1 (stereo partly shown) [Compound 32]
25,5.96,COC(=O)C1NC[C@H](Cc2ccccc2)N(CC(O)CN(CC2CCCC2)S(=O)(=O)c2ccc(OC)cc2)C1=O (stereo partly shown) [Compound 33]
26,6.02,COC(=O)C1(C)NC[C@H](Cc2ccccc2)N(CC(O)CN(CC2CCCC2)S(=O)(=O)c2ccc(OC)cc2)C1=O (stereo partly shown) [Compound 34]
27,7.70,COc1ccc(S(=O)(=O)N(CC2CCCC2)C[C@@H](O)CN2C(=O)C3(CCCCC3)OC[C@@H]2Cc2ccccc2)cc1 [Compound 47]

# Same assay, conditions: Inhibition constant measured at pH 6.0
row,pKi,SMILES
1,6.74,C=CCN1C[C@H](Cc2ccccc2)N(CC(O)CN2C[C@H]3CCCC[C@H]3CC2C(=O)NC(C)(C)C)C1=O (stereo partly shown) [Compound 2]
2,5.74,C=CCN1C[C@H](Cc2ccccc2)N(CC(O)CN2CCN(Cc3cccnc3)CC2C(=O)NC(C)(C)C)C1=O (stereo partly shown) [Compound 3]
3,< 5.00,CC(C)(C)NC(=O)C1C[C@@H]2CCCC[C@@H]2CN1CC(O)CN1C(=O)C(C)(C)NC[C@@H]1Cc1ccccc1 (stereo partly shown) [Compound 5]
4,8.30,C=CCC1C[C@H](Cc2ccccc2)N(CC(O)CN2C[C@H]3CCCC[C@H]3CC2C(=O)NC(C)(C)C)C1=O (stereo partly shown) [Compound 8]
5,7.05,C=CCC1C[C@H](Cc2ccccc2)N(CC(O)CN2CCN(Cc3cccnc3)CC2C(=O)NC(C)(C)C)C1=O (stereo partly shown) [Compound 9]
6,6.60,CC(C)(C)NC(=O)C1C[C@@H]2CCCC[C@@H]2CN1CC(O)CN1C(=O)N(Cc2ccccc2)C[C@@H]1Cc1ccccc1 (stereo partly shown) [Compound 76]
7,6.25,CC(C)(C)NC(=O)C1C[C@@H]2CCCC[C@@H]2CN1CC(O)CN1[C@@H](Cc2ccccc2)CN(Cc2ccccc2)S1(=O)=O (stereo partly shown) [Compound 77]
8,8.00,C=CCN1CC(Cc2ccccc2)N(CC(O)CC(Cc2ccccc2)C(=O)NC2c3ccccc3CC2O)C1=O (stereo not shown) [Compound 78]
9,5.92,CC(C)(C)NC(=O)C1CSCN1C(=O)C(O)CN1C(=O)C(Cc2ccccc2)CC1Cc1ccccc1 (stereo not shown) [Compound 102]
10,< 5.00,CC(C)(C)NC(=O)C1CSCN1C(=O)C(=O)CN1C(=O)C(C)(C)NC[C@@H]1Cc1ccccc1 (stereo partly shown) [Compound 105]
11,6.60,CC(C)(C)NC(=O)C1CSCN1C(=O)C(=O)CN1C(=O)C(Cc2ccccc2)CC1Cc1ccccc1 (stereo not shown) [Compound 109]
12,< 5.00,CC(C)(C)NC(=O)C1CSCN1C(=O)C(=O)CN1C(=O)CCC1Cc1ccccc1 (stereo not shown) [Compound 111]
13,5.07,CCCC1CC(Cc2ccccc2)N(CC(=O)C(=O)N2CSCC2C(=O)NC(C)(C)C)C1=O (stereo not shown) [Compound 112]
